From BigSolDB 2.1

CO/C=C(/C(=O)OC)c1ccccc1Oc1cc(Oc2ccccc2C#N)ncn1
solubility (mole fraction)
Details	288.15 K	293.15 K	298.15 K	303.15 K	308.15 K	313.15 K	318.15 K	323.15 K	328.15 K
in ethanol	0.000747	0.000923	0.00118	0.00171	0.0022	0.00296	0.00422	0.0056	0.00786
in ethyl acetate	0.0246	0.0283	0.0319	0.0415	0.0473	0.059	0.0756	0.0879	0.108
in isobutanol	0.000441	0.000628	0.00084	0.00129	0.0017	0.00231	0.00324	0.00441	0.00571
in isopropanol	0.000339	0.000476	0.000649	0.00102	0.00134	0.00183	0.0026	0.00358	0.00452
in methanol	0.00135	0.00165	0.00205	0.0027	0.00368	0.00497	0.00683	0.0096	0.0144
in n-butanol	0.000514	0.000733	0.000955	0.00149	0.00185	0.00246	0.0034	0.00476	0.00635
in n-propanol	0.000654	0.000829	0.00108	0.00162	0.00207	0.00277	0.00387	0.00527	0.0072
